Laboratory results: PubChem BioAssay (NCI)
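96-well plates; 48 h exposure; 5 concentrations. Endpoints by linear interpolation between flanking doses. Not reached: highest tested concentration assigned. GI50 marks 50% less growth. TGI denotes the concentration required for complete inhibition of growth.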

How the values were obtained:
Experiment in all cases: growth of human tumour cells (NCI), 48 h
MDA-N = system: MDA-N
MDA-MB-435 = system: MDA-MB-435
DU-145 prostate = system: DU-145 prostate
MCF7 breast = system: MCF7 breast
A498 renal = system: A498 renal
HS 578T breast = system: HS 578T breast
OVCAR-4 ovarian = system: OVCAR-4 ovarian
SNB-75 CNS = system: SNB-75 CNS
PC-3 prostate = system: PC-3 prostate
A549 NSCLC = system: A549 NSCLC

SMILES	TGI (MDA-N)	TGI (MDA-MB-435)	TGI (DU-145 prostate)	TGI (MCF7 breast)	TGI (A498 renal)	TGI (HS 578T breast)	TGI (OVCAR-4 ovarian)	TGI (SNB-75 CNS)	TGI (PC-3 prostate)	TGI (A549 NSCLC)	GI50 (MDA-MB-435)	GI50 (DU-145 prostate)	GI50 (OVCAR-4 ovarian)	GI50 (SNB-75 CNS)	GI50 (MCF7 breast)	GI50 (A498 renal)	GI50 (HS 578T breast)	GI50 (PC-3 prostate)	GI50 (A549 NSCLC)
COc1ccc2c(c1)CCC(CN1CCN(CCOC(c3ccc(F)cc3)c3ccc(F)cc3)CC1)C2O (configuration not stated)	29.7 µM	34.6 µM	34.8 µM	39.7 µM	19.9 µM	38.7 µM	32.9 µM	32.9 µM	24 µM	32.7 µM									
C/C1=N\NC(=O)c2ccccc2C(=O)N/N=C(\C)c2cccc1n2.O=[N+]([O-])[O-].[Zn+2]					> 100 µM		> 100 µM	> 100 µM		> 100 µM									
CCN=C=NCCCN(C)C	> 100 µM	> 100 µM	> 100 µM	> 100 µM	> 100 µM	> 100 µM	> 100 µM	> 100 µM	> 100 µM	> 100 µM									
COc1ccc2[nH]c3c([N+](=O)[O-])ccc(Cl)c3c(=O)c2c1	> 55.6 µM	> 55.8 µM	> 100 µM	> 84.8 µM	> 100 µM	> 100 µM	28.7 µM		52.1 µM	> 100 µM									
Nc1ccc(OCC(O)N2C(=O)c3ccccc3C2=O)cc1 (configuration not stated)	> 100 µM	> 100 µM	> 100 µM	> 100 µM			> 100 µM		> 100 µM	> 100 µM									
CC(C)(C)C1(c2ccc(C3(c4ccccc4)Oc4ccccc4S3)[nH]2)Oc2ccccc2S1 (configuration not stated)										> 100 µM									
Nc1cc(S(=O)(=O)O)cc2cc(S(=O)(=O)O)c(N=Nc3ccc(-c4ccc(N=Nc5c(S(=O)(=O)O)cc6cc(S(=O)(=O)O)cc(N)c6c5O)cc4)cc3)c(O)c12				> 100 µM	> 100 µM		> 100 µM	> 100 µM		> 100 µM									
COC1/C=C\OC2(C)Oc3c(C)c(O)c4c(O)c(c(/C=N\OCCCc5ccccc5)c(O)c4c3C2=O)NC(=O)/C(C)=C\C=C/C(C)C(O)C(C)C(O)C(C)C(OC(C)=O)C1C (configuration not stated)	13 µM	9.28 µM	15.7 µM	5.6 µM	20.5 µM	25.2 µM	12.6 µM	8.86 µM	11.2 µM	12.9 µM									
Cc1ccc(P(c2ccc(C)cc2)c2ccc(C)cc2)cc1	55.8 µM	41.1 µM	40.1 µM	> 100 µM	79.3 µM	57 µM	80.3 µM	49.5 µM	> 100 µM	> 100 µM									
C=C(CN(C)C)C(=O)c1ccc(C)cc1C	14.3 µM	17.1 µM	33.5 µM	13.9 µM	33.7 µM	> 79 µM	33.5 µM	34.9 µM	31.1 µM	63.1 µM									
O=Nc1ccc(O)c2ncccc12	6.01 µM	3.83 µM	65.9 µM	16.6 µM	42.4 µM	3.66 µM	24.1 µM	8.48 µM	29.8 µM	30.4 µM									
C=C1C(=O)CCC1C(=O)O (configuration not stated)	> 100 µM	> 100 µM	> 100 µM	> 100 µM	> 100 µM	> 100 µM	> 100 µM	> 100 µM	> 100 µM	> 100 µM									
C[C@H](C(=O)N[C@@H](Cc1ccc(-c2ccccc2)cc1)C(=O)NC1CC(C)(C)N(C)C(C)(C)C1)c1ccc(-c2ccccc2)c(F)c1		2.56 µM	3 µM				2.84 µM	3.74 µM			1.29 µM	1.58 µM	0.818 µM	1.35 µM					
COc1ccc(-c2nn(-c3ccc(NC(=O)Nc4ccc(Cl)c(Cl)c4)cc3)cc2-c2ccncc2)cc1Cl		> 100 µM	> 100 µM	9.34 µM	8.04 µM	7.63 µM	> 100 µM	> 100 µM	14.4 µM	> 100 µM	2.3 µM	3.97 µM	1.79 µM	1.17 µM	2.37 µM	1.75 µM	1.42 µM	1.29 µM	1.56 µM
